In patent publication US20050180982A1, “Cadherin-11 expression, an assay and treatment for cellular invasiveness” (THE UNIVERSITY OF BRITISH COLUMBIA, priority 1998, published 2005):

What was measured:
[1] = tested on: cad-6 mRNA in human granulosa cells; assay: Specificity of antisense in granulosa cells, Northern blot, cad-6 probe; assay type: cell-based; conditions: 0.5-5 M, 24 hours
Procedure: (§1) In order to determine the specificity of OB-1, the effect of OB-1 was determined in human granulosa cells. Human granulosa cells express three cadherin subtypes (cad-11, cad-6 and N-cad) as they undergo spontaneous luteinization in culture. Granulosa cells which had been cultured for 36 hours were treated with OB-1 or OB-3 (0.5-5 M). The cultures were maintained for a further 24 hours, after which the cells were harvested for Northern analysis. Northern blots were probed with cad-11, cad-6, or N-cadherin (neural cadherin) cDNA probes as previously described. OB-1 caused a reduction in the levels of the cad-11 RNA transcript in a dose-dependent manner but had no effect on cad-6 or N-cadherin mRNA levels. In contrast.

[2] = tested on: cad-11 RNA transcript in human granulosa cells; assay: Specificity of antisense in granulosa cells, Northern blot, cad-11 probe; assay type: cell-based; set-up: dose or concentration left out as unconfirmed; conditions: 24 hours, dose-dependent manner for OB-1
Procedure: as §1

human decidual cells [3] = assay: Effect on primary cultures of human decidual cells; set-up: cell interactions and attachment: dose or concentration left out as unconfirmed; conditions: for 24 hours
[4] = tested on: cytotrophoblasts isolated from term placenta; assay: Morphology of cytotrophoblasts by light microscopy and indirect immunofluorescence; assay type: cell-based, human
Text: The effect of OB-1 and OB-3 on the morphology of the cytotrophoblast was examined by light microscopy and indirect immunofluoresence.

villous cytotrophoblasts [5] = assay: P4 and hCG in culture medium of villous cytotrophoblasts (functional differentiation); assay type: cell-based, human; conditions: compared with OB-3 treated cells
Procedure: To determine whether reduced cad-11 expression in villous cytotrophoblasts would affect the functional differentiation of the primary cell cultures, concentrations of P4 and hCG were measured in the culture medium. The number of cells present in these cell cultures was determined by DNA content.

[6] = tested on: E-cad in cytotrophoblasts isolated from term placenta; assay: Western blot of E-cad in term placenta cytotrophoblasts treated with oligonucleotide; assay type: cell-based, human; conditions: 5 NI, further 24 or 48 hours
Procedure: (§2) Cellular aggregation in these cultures is observed after approximately 12 hours, with syncytial structures being observed after approximately 24 hours. After 72 hours, multinucleated syncytium is the predominant cell feature in these cultures. As described above, the terminal differentiation and fusion of these cells is associated with an increase in cad-11 mRNA and protein expression levels and a concomitant decrease in E-cad expression.
(§3) The effects of OB-1 on the differentiation of these trophoblasts isolated from term placenta was determined. Cytotrophoblasts were cultured for 0, 6, 12 or 24 hours before being treated with either OB-1 or OB-3 (5 NI). The cultures were maintained for a further 24 or 48 hours, after which the cells were harvested for Western blot analysis.

[7] = tested on: cad-11 in cytotrophoblasts isolated from term placenta; assay: Western blot of cad-11 in term placenta cytotrophoblasts treated with oligonucleotide; assay type: cell-based, human; conditions: 5 NI, further 24 or 48 hours
Procedure: as §2, §3

[8] = tested on: cad-11 in decidual explants; assay: Western blot of cad-11 in decidual explants; assay type: cell-based, human; set-up: dose or concentration left out as unconfirmed
Procedure: Co-cultures of decidua parietalis and villous placenta were established on a three-dimensional gel of rat tail collagen. The decidua and the villous tissue were cut into 1-2 mm cubes, explants were placed in 35 nun culture dishes containing 0.1 ml of the collagen mixture. After the gel had formed, a piece of villous tissue, suspended in 0.05 ml of culture medium was placed on to the exposed decidual surface. After 2 hours, the plates were flooded with culture medium. Stable adhesion between the villous and decidual tissues occurred within 48 hours. Samples are harvested after 48, 72, or 96 hours of culture. Tissues were embedded in OCT compound, snap frozen, and frozen section prepared. Blocks containing the co-cultures were cut in-full in order to obtain information about the three dimensional aspect of the contact sites. Contact sites were identified by hematoxylin staining and confirmed by immunostaining for cytokeratin. In the areas of contact, there was cytotrophoblast layering leading to localized erosion of the syncytial trophoblast and the formation of an extravillous column, which penetrates the underlying decidual explant.
In order to determine whether the cad-11 antisense oligonucleotides could decrease cad-11 expression in tissue explants, decidual explants were cultured in the presence of OB-1 or OB-3 (5 M) for 24 hours.

[9] = tested on: BeWo choriocarcinoma cells; assay: BeWo choriocarcinoma cells cultured with cAMP, differentiation and fusion; assay type: cell-based
human decidual cells [10] = tested on: human decidual cells
[11] = tested on: N-cadherin mRNA in human granulosa cells; assay: Specificity of antisense in granulosa cells, Northern blot, N-cadherin probe; assay type: cell-based; conditions: 0.5-5 M, 24 hours
Procedure: as §1

[12] = tested on: Cos-1 cells transfected with the steroid acute regulatory protein; assay: Non-specific effects on cell number and steroidogenic capacity in Cos-1 cells; assay type: cell-based; set-up: cell number (Coulter cell counter): dose or concentration left out as unconfirmed
Procedure: Non-specific effects of the antisense oligonucleotides on cell viability and the steroidogenic capacity of cells was determined using Cos-1 cells transfected with the steroid acute regulatory protein (from Dr. J. F. Strauss, III. University of Pennsylvania, Philadelphia, Pa.). […] The COS-1 cells were cultured in the presence or absence of varying concentrations of OB-1 OR OB-3 (0.5-5 M) for 48 hours. The cell number present in each culture was determined using a Coulter™ cell counter and P4 concentrations present in the culture medium using a Progesterone RIA™ kit. As determined by these parameters.

[13] = tested on: PC3 cells treated with TGF-1
[14] = tested on: Villous cytotrophoblasts isolated from the human term placenta, cultured 72 hours
[15] = tested on: PC3 cells treated with TGF-1; assay: Effect of oligonucleotides on PC3 cells treated with TGF-1; set-up: cell interactions and attachment: dose or concentration left out as unconfirmed; conditions: for 24 hours
villous cytotrophoblasts [16] = assay: Reversibility of oligonucleotide effects on villous cytotrophoblasts; assay type: cell-based, human; conditions: 48 hours with oligonucleotide, washed, further 24 hours
Procedure: To determine whether the effects of OB-1 on villous cytotrophoblasts are reversible, cells were cultured in the presence of OB-1 or OB-3 for 48 hours. The cells were washed thoroughly with PBS. The culture medium was then replaced and the cells cultured for a further 24 hours. […] The majority of cells (90%) detached from the culture and dish. Cad-11 was not detected in the remaining cells.

With “OB-1: cad-11 antisense oligonucleotide, 18 mer, phosphothiorate: GGC GGC TTG TAA ACA GTA (SEQ ID NO:1) (antisense GGCGGCTTGTAAACAGTA; all phosphorothioate, sugars by position and methylation of C not given here; listed as Homo sapiens)” the “cad-6 mRNA levels” value [1] was “no effect”, the “levels of the cad-11 RNA transcript” value [2] was “reduction” and the “cell interactions and attachment” value (human decidual cells [3]) was “lose interactions with one another and detach from the plastic in a dose-dependent manner”. The “composition of cellular structures formed (fusion)” value ([4]; indirect immunofluorescence for E-cadherin) was “mononucleate cytotrophoblasts”, the “ability of the cytotrophoblasts to aggregate” value ([4]; light microscopy) was “did not appear to affect” and the “levels of P4 in the culture medium” value (villous cytotrophoblasts [5]) was “significantly lower”. The “levels of hCG in the culture medium” value (villous cytotrophoblasts [5]) was “significantly lower”, the E-cad levels [6] was “remained constant” and the “cad-11 expression with time in culture” value [7] was “failed to up-regulate”. For the same substance, the cad-11 expression [8] was “significantly reduced”, the “cellular differentiation and fusion” value ([9]; cells cultured in the presence of cAMP for 12 hours) was “inhibiting cellular differentiation and fusion” and the “membrane integrity of the syncytial structures” value ([9]; syncytial structures formed after 24 hours of cAMP) was “disrupted the membrane integrity”. The “viability by trypan blue staining” value (human decidual cells [10]) was “no longer viable”, the “N-cadherin mRNA levels” value [11] was “no effect” and the “steroidogenic capacity (P4 concentrations in culture medium, RIA)” value ([12]; 0.5-5 M for 48 hours) was “did not have a significant effect”. The “cell number (Coulter cell counter)” value ([12]; for 48 hours) was “did not have a significant effect”, the “viability by trypan blue staining” value [13] was “no longer viable” and the “viability of syncytial structures (trypan blue)” value [14] was “no longer viable”. For the same substance, the “structures observed (phase contrast microscopy)” value ([14]; oligonucleotide added after 72 hours of culture, OB-1 for 24 hours) was “cellular debris”, the “cell interactions and attachment” value [15] was “lose interactions with one another, and detach from the plastic in a dose-dependent manner” and the “cad-11 in the remaining cells” value (villous cytotrophoblasts [16]) was “not detected”. The “cell viability after wash-out” value (villous cytotrophoblasts [16]) was “no longer viable” and the “cells detached from the culture dish” value (villous cytotrophoblasts [16]) was 90%.
